Experimental data from US20070281992A1, “COMBINATION OF GYRASE B INHIBITORS AND PROTEIN SYNTHESIS INHIBITORS AND USES THEREOF” (priority 2006, published 2007).
Like-named read-outs stand apart in the source and are kept apart here.

Assays:
Type in all cases: cell-based
[1] = tested on: Methicillin-Susceptible Staphylococcus aureus Isolates; experiment: MIC assay (NCCLS broth dilution), MSSA clinical isolates; conditions: for MIC: read-out: Minimal Inhibitory Concentration
How it was run: (§1)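 Staphylococcal isolates and QC strains (S. aureus ATCC 29213, E. faecalis ATCC 29212) tested by NCCLS broth dilution in Mueller Hinton II broth. Agents run as 11 two-fold serial dilutions, with novobiocin combined with tetracycline or minocycline at 2.5:1. Vancomycin was the control.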

[2] = tested on: Methicillin-Resistant Staphylococcus aureus Isolates; experiment: MIC assay (NCCLS broth dilution), MRSA clinical isolates; conditions: Staphylococcus aureus; for MIC: read-out: Minimal Inhibitory Concentration
How it was run: as §1

[3] = tested on: Vancomycin-intermediate Staphylococcus epidermidis Isolates; experiment: MIC assay (NCCLS broth dilution), VISE isolates; conditions: for MIC: read-out: Minimal Inhibitory Concentration
How it was run: as §1

[4] = tested on: Unconfirmed Vancomycin-intermediate Staphylococcus epidermidis Isolates; experiment: MIC assay (NCCLS broth dilution), unconfirmed VISE isolates; conditions: Staphylococcus epidermidis; for MIC: read-out: Minimal Inhibitory Concentration
How it was run: as §1

[5] = tested on: Linezolid-Resistant Staphylococcus aureus Isolates; experiment: MIC assay (NCCLS broth dilution), LRSA isolates; conditions: for MIC: read-out: Minimal Inhibitory Concentration
How it was run: as §1

[6] = Staphylococcus aureus, 52 MSSA isolates, combinations at 2.5:1, given as NB/partner
[7] = 52 MRSA isolates, combinations at 2.5:1, given as NB/partner

Cc1onc(-c2ccccc2)c1C(=O)N[C@@H]1C(=O)N2[C@@H]1SC(C)(C)[C@@H]2C(=O)O [OX, oxacillin]
> 32 µg/mL: MIC ([2]; MRSA isolate 758, 03MAR06) | MIC ([2]; MRSA isolate 758, 24FEB06) | MIC ([2]; MRSA isolate 760, 03MAR06) | MIC ([2]; MRSA isolate 760, 24FEB06) | MIC ([2]; MRSA isolate 765, 22FEB06) | MIC ([2]; MRSA isolate 766, 22FEB06) | MIC ([2]; MRSA isolate 771, 22FEB06) | MIC ([2]; MRSA isolate 775, 24FEB06) | MIC ([2]; MRSA isolate 776, 24FEB06) | MIC ([2]; MRSA isolate 778, 24FEB06) | MIC ([2]; MRSA isolate 887, 24FEB06) | MIC ([2]; MRSA isolate 888, 24FEB06) | MIC ([2]; MRSA isolate 889, 24FEB06) | MIC ([2]; MRSA isolate 1012, 22FEB06) | MIC ([2]; MRSA isolate 1137, 22FEB06) | MIC ([2]; MRSA isolate 1653, 03MAR06) | MIC ([2]; MRSA isolate 1661, 03MAR06) | MIC ([2]; MRSA isolate 1729, 03MAR06) | MIC ([2]; MRSA isolate 2009, 24FEB06) | MIC90 [2, 7] | MIC ([4]; Unconfirmed VISE isolate 2024, 09MAR06) | MIC ([5]; Staphylococcus aureus, LRSA isolate 1651, 24FEB06) | MIC ([5]; Staphylococcus aureus, LRSA isolate 1652, 24FEB06) | MIC ([5]; Staphylococcus aureus, LRSA isolate 1725, 24FEB06) | MIC50 ([5]; Staphylococcus aureus, 3 LRSA isolates, combinations at 2.5:1)
.12 to .5 µg/mL: MIC Range ([1]; 52 MSSA isolates, Mueller Hinton II Broth, combinations at 2.5:1, given as NB/partner)
0.5 µg/mL: MIC ([1]; Staphylococcus aureus, MSSA isolate 1002, 24FEB06) | MIC ([1]; Staphylococcus aureus, MSSA isolate 1009, 24FEB06) | MIC ([1]; Staphylococcus aureus, MSSA isolate 1131, 24FEB06) | MIC ([1]; Staphylococcus aureus, MSSA isolate 1133, 24FEB06) | MIC ([3]; Staphylococcus epidermidis, VISE isolate 2021, 09MAR06)
>32 µg/mL: MIC Range ([5]; 3 LRSA isolates, combinations at 2.5:1)
0.5 to 16 µg/mL: MIC Range ([3]; 4 VISE isolates, combinations at 2.5:1)
4 µg/mL: MIC ([2]; MRSA isolate 1023, 22FEB06) | MIC ([4]; Unconfirmed VISE isolate 2025, 09MAR06)
8 µg/mL: MIC ([2]; MRSA isolate 768, 22FEB06) | MIC ([2]; MRSA isolate 773, 24FEB06) | MIC ([2]; MRSA isolate 1004, 24FEB06) | MIC ([2]; MRSA isolate 1016, 22FEB06) | MIC ([2]; MRSA isolate 1022, 22FEB06) | MIC ([2]; MRSA isolate 1138, 22FEB06) | MIC ([3]; Staphylococcus epidermidis, VISE isolate 2020, 09MAR06)
2 µg/mL: MIC ([3]; Staphylococcus epidermidis, VISE isolate 2023, 03MAR06) | MIC50 ([3]; Staphylococcus epidermidis, 4 VISE isolates, combinations at 2.5:1)
0.25 µg/mL: MIC ([1]; Staphylococcus aureus, MSSA isolate 134, 03MAR06) | MIC ([1]; Staphylococcus aureus, MSSA isolate 135, 03MAR06) | MIC ([1]; Staphylococcus aureus, MSSA isolate 753, 22FEB06) | MIC ([1]; Staphylococcus aureus, MSSA isolate 754, 22FEB06) | MIC ([1]; Staphylococcus aureus, MSSA isolate 754, 24FEB06) | MIC ([1]; Staphylococcus aureus, MSSA isolate 755, 22FEB06) | MIC ([1]; Staphylococcus aureus, MSSA isolate 756, 03MAR06) | MIC ([1]; Staphylococcus aureus, MSSA isolate 780, 03MAR06) | MIC ([1]; Staphylococcus aureus, MSSA isolate 781, 03MAR06) | MIC ([1]; Staphylococcus aureus, MSSA isolate 782, 22FEB06) | MIC ([1]; Staphylococcus aureus, MSSA isolate 783, 22FEB06) | MIC ([1]; Staphylococcus aureus, MSSA isolate 784, 22FEB06) | MIC ([1]; Staphylococcus aureus, MSSA isolate 786, 22FEB06) | MIC ([1]; Staphylococcus aureus, MSSA isolate 787, 22FEB06) | MIC ([1]; Staphylococcus aureus, MSSA isolate 788, 22FEB06) | MIC ([1]; Staphylococcus aureus, MSSA isolate 789, 24FEB06) | MIC ([1]; Staphylococcus aureus, MSSA isolate 790, 24FEB06) | MIC ([1]; Staphylococcus aureus, MSSA isolate 791, 24FEB06) | MIC ([1]; Staphylococcus aureus, MSSA isolate 793, 24FEB06) | MIC ([1]; Staphylococcus aureus, MSSA isolate 794, 24FEB06) | MIC ([1]; Staphylococcus aureus, MSSA isolate 994, 22FEB06) | MIC ([1]; Staphylococcus aureus, MSSA isolate 996, 22FEB06) | MIC ([1]; Staphylococcus aureus, MSSA isolate 997, 22FEB06) | MIC ([1]; Staphylococcus aureus, MSSA isolate 999, 22FEB06) | MIC ([1]; Staphylococcus aureus, MSSA isolate 1000, 24FEB06) | MIC ([1]; Staphylococcus aureus, MSSA isolate 1001, 24FEB06) | MIC ([1]; Staphylococcus aureus, MSSA isolate 1003, 03MAR06) | MIC ([1]; Staphylococcus aureus, MSSA isolate 1005, 24FEB06) | MIC ([1]; Staphylococcus aureus, MSSA isolate 1006, 24FEB06) | MIC ([1]; Staphylococcus aureus, MSSA isolate 1007, 24FEB06) | MIC ([1]; Staphylococcus aureus, MSSA isolate 1008, 24FEB06) | MIC ([1]; Staphylococcus aureus, MSSA isolate 1134, 24FEB06) | MIC ([1]; Staphylococcus aureus, MSSA isolate 1656, 03MAR06) | MIC ([1]; Staphylococcus aureus, MSSA isolate 1662, 03MAR06) | MIC ([1]; Staphylococcus aureus, MSSA isolate 1663, 03MAR06) | MIC ([1]; Staphylococcus aureus, MSSA isolate 1666, 03MAR06) | MIC ([1]; Staphylococcus aureus, MSSA isolate 1667, 03MAR06) | MIC ([1]; Staphylococcus aureus, MSSA isolate 1668, 03MAR06) | MIC ([1]; Staphylococcus aureus, MSSA isolate 1671, 03MAR06) | MIC ([1]; Staphylococcus aureus, MSSA isolate 1728, 03MAR06) | MIC50 [1, 6] | MIC90 [1, 6]
16 µg/mL: MIC ([2]; MRSA isolate 767, 22FEB06) | MIC ([2]; MRSA isolate 769, 22FEB06) | MIC ([2]; MRSA isolate 770, 22FEB06) | MIC ([2]; MRSA isolate 1017, 22FEB06) | MIC ([2]; MRSA isolate 1024, 22FEB06) | MIC ([2]; MRSA isolate 1025, 22FEB06) | MIC ([2]; MRSA isolate 1658, 03MAR06) | MIC ([2]; MRSA isolate 1659, 03MAR06) | MIC ([2]; MRSA isolate 2010, 24FEB06) | MIC ([3]; Staphylococcus epidermidis, VISE isolate 2022, 03MAR06)
0.12 µg/mL: MIC ([1]; Staphylococcus aureus, MSSA isolate 133, 03MAR06) | MIC ([1]; Staphylococcus aureus, MSSA isolate 779, 22FEB06) | MIC ([1]; Staphylococcus aureus, MSSA isolate 785, 22FEB06) | MIC ([1]; Staphylococcus aureus, MSSA isolate 792, 03MAR06) | MIC ([1]; Staphylococcus aureus, MSSA isolate 995, 03MAR06) | MIC ([1]; Staphylococcus aureus, MSSA isolate 998, 03MAR06) | MIC ([1]; Staphylococcus aureus, MSSA isolate 1132, 03MAR06) | MIC ([1]; Staphylococcus aureus, MSSA isolate 1654, 03MAR06) | MIC ([1]; Staphylococcus aureus, MSSA isolate 1728, retest 09MAR06)
32 µg/mL: MIC ([2]; MRSA isolate 757, 24FEB06) | MIC ([2]; MRSA isolate 763, 22FEB06) | MIC ([2]; MRSA isolate 772, 22FEB06) | MIC ([2]; MRSA isolate 774, 24FEB06) | MIC ([2]; MRSA isolate 777, 24FEB06) | MIC ([2]; MRSA isolate 886, 24FEB06) | MIC ([2]; MRSA isolate 1010, 22FEB06) | MIC ([2]; MRSA isolate 1013, 22FEB06) | MIC ([2]; MRSA isolate 1014, 22FEB06) | MIC ([2]; MRSA isolate 1015, 22FEB06) | MIC ([2]; MRSA isolate 1021, 22FEB06) | MIC ([2]; MRSA isolate 1135, 22FEB06) | MIC ([2]; MRSA isolate 1136, 22FEB06) | MIC ([2]; MRSA isolate 1222, 03MAR06) | MIC ([2]; MRSA isolate 1222, 24FEB06) | MIC ([2]; MRSA isolate 1730, 24FEB06) | MIC ([2]; MRSA isolate 2011, 24FEB06) | MIC50 [2, 7] | MIC ([4]; Unconfirmed VISE isolate 2026, 03MAR06) | MIC50 ([4]; 3 unconfirmed VISE isolates, combinations at 2.5:1)
